Assay results published in the supplement of paper PMC11061612.

Key:
[1] = test system: VAL (B-Cell Non-Hodgkin's Lymphoma); assay: Bliss excess, mean over the matrix (fraction); higher = more synergy
Summary of the method: (§1)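 Cell lines in DMEM/F12 or RPMI with 10% FBS were plated in 1536-well plates, held 24 hours at 37°C, 5% CO2, then given two-drug dose matrices for 72 hours (DMSO typically 0.2%). Viability was read by CellTiter-Glo 2.0 luminescence and scaled as inhibition from 0 (vehicle wells) to 1 (blank wells). Combination Emax is the second-highest inhibition in the matrix; Bliss excess is observed combination effect minus expected EA + EB − EA·EB, EA and EB being single-agent effects.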

[2] = test system: OPM-2 (Plasma Cell Myeloma); assay: as above
Summary of the method: as §1

[3] = test system: CAL-120 (Breast Carcinoma); assay: as above
Summary of the method: as §1

[4] = test system: SK-PN-DW (Other Solid Carcinomas); assay: combination Emax (second highest fraction inhibited in the dose matrix, 72 h); higher = more inhibition; extreme values may be limits of the assay
Summary of the method: as §1

[5] = test system: COLO-680N (Esophageal Squamous Cell Carcinoma); assay: as above
Summary of the method: as §1

[6] = test system: 23132-87 (Gastric Carcinoma); assay: as above
Summary of the method: as §1

[7] = test system: HEC-1 (Endometrial Carcinoma); assay: as above
Summary of the method: as §1

LN-229 (Glioblastoma) = assay: as above
Summary of the method: as §1

[8] = test system: RERF-LC-Sq1 (Squamous Cell Lung Carcinoma); assay: as above
Summary of the method: as §1

[9] = test system: LK-2 (Squamous Cell Lung Carcinoma); assay: as above
Summary of the method: as §1

[10] = test system: KE-37 (T-Lymphoblastic Leukemia); assay: as above
Summary of the method: as §1

[11] = test system: REH (B-Lymphoblastic Leukemia); assay: as above
Summary of the method: as §1

IST-MES1 (Mesothelioma) = assay: as above
Summary of the method: as §1

[12] = test system: CAL-120 (Breast Carcinoma); assay: as above
Summary of the method: as §1

[13] = test system: NCI-H2342 (Lung Adenocarcinoma); assay: as above
Summary of the method: as §1

SF539 (Glioblastoma) = assay: as above
Summary of the method: as §1

WM278 (Melanoma) = assay: as above
Summary of the method: as §1

[14] = test system: MFE-280 (Endometrial Carcinoma); assay: as above
Summary of the method: as §1

SF268 (Low Grade Glioma) = assay: as above
Summary of the method: as §1

[15] = test system: PANC-03-27 (Pancreatic Carcinoma); assay: as above
Summary of the method: as §1
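Throughout, for Bliss excess, mean over the matrix: after 72 h of two-drug dosing.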

Row | Structure (SMILES) | Bliss excess [1] | Bliss excess [2] | Bliss excess [3] | combination Emax [4] | combination Emax [5] | combination Emax [6] | combination Emax [7] | combination Emax (LN-229 (Glioblastoma)) | combination Emax [8] | combination Emax [9] | combination Emax [10] | combination Emax [11] | combination Emax (IST-MES1 (Mesothelioma)) | combination Emax [12] | combination Emax [13] | combination Emax (SF539 (Glioblastoma)) | combination Emax (WM278 (Melanoma)) | combination Emax [14] | combination Emax (SF268 (Low Grade Glioma)) | combination Emax [15]
1 | COc1cccc(OCCCN)c1-c1cc(Nc2cnc(C#N)cn2)n[nH]1 [Prexasertib] + C=CCn1c(=O)c2cnc(Nc3ccc(N4CCN(C)CC4)cc3)nc2n1-c1cccc(C(C)(C)O)n1 [AZD1775] (first compound max 1 µM, partner max 1 µM) | 0.0026 | 0.0569 | 0.0551 | 0.968 | 0.505 | 0.939 | 0.715 | 0.738 | 0.906 | 0.92 | 1 | 1 | 0.609 | 0.685 | 0.415 | 1 | 0.605 | 0.739 | 0.561 | 0.925
2 | C=CCn1c(=O)c2cnc(Nc3ccc(N4CCN(C)CC4)cc3)nc2n1-c1cccc(C(C)(C)O)n1 [AZD1775] + C[C@@H]1COCCN1C2=NC(=NC(=C2)C3(CC3)[S@](=N)(=O)C)C4=C5C=CNC5=NC=C4 [AZD6738] (first compound max 1 µM, partner max 10 µM) | 0.0239 | 0.0437 | 0.0021 | 0.955 | 0.529 | 0.918 | 0.638 | 0.59 | 0.859 | 0.882 | 1 | 0.955 | 0.597 | 0.583 | 0.426 | 1 | 0.44 | 0.627 | 0.526 | 0.939
